Experimental data taken from patent US11319321B2, “[1,2,4]triazolo[1,5-a]pyrimidine compounds as PDE2 inhibitors” (Janssen Pharmaceutica NV, priority 2016, dated 2022).
Where two headings read alike, the source gives them in different places.

How the values were obtained:
hPDE3B = assay: In vitro assay PDE3 (SPA, 3H-cAMP); format: biochemical, human; conditions: 0.4 μM cAMP substrate; for hPDE3B Emax: in % (unit assumed)
hPDE10A2 = hPDE10A2 (Homo sapiens, UniProt Q9Y233); assay: biochemical; conditions: 60 nM cAMP substrate; for IC50: human clone, read-out: hPDE10A2 or rPDE10A2 pIC50 (converted); for Emax: read-out: hPDE10A2 or rPDE10A2 Emax, human clone
Description: Rat recombinant PDE10A (rPDE10A2) was expressed in Sf9 cells using a recombinant rPDE10A baculovirus construct. Cells were harvested after 48 h of infection and the rPDE10A protein was purified by metal chelate chromatography on Ni-sepharose 6FF. Tested compounds were dissolved and diluted in 100% DMSO to a concentration 100 fold of the final concentration in the assay. Human recombinant PDE10A ([…]) was expressed in Sf9 cells using a recombinant hPDE10A baculovirus that was made and amplified in house. Cells were harvested after 72 h of infection and the hPDE10A protein was purified by metal chelate chromatography on Ni-sepharose. Compound dilutions (0.4 μl) were added in 384 well plates to 20 μl of incubation buffer (50 mM Tris pH 7.8, 8.3 mM MgCl2, 1.7 mM EGTA). 10 μl of rPDE10A or hPDE10A enzyme in incubation buffer was added and the reaction was started by addition of 10 μl substrate to a final concentration of 60 nM cAMP and […] ^3H-cAMP. The reaction was incubated for 60 minutes at room temperature. After incubation, the reaction was stopped with 20 μl of stop solution consisting of 17.8 mg/ml PDE SPA (scintillation proximity assay) beads. After sedimentation of the beads during 30 minutes the radioactivity was measured in a Perkin Elmer Topcount scintillation counter and results were expressed as cpm. For blanc values the enzyme was omitted from the reaction and replaced by incubation buffer. Control values were obtained by addition of a final concentration of 1% DMSO instead of compound. A best fit curve is fitted by a minimum sum of squares method to the plot of % of control value substracted with blanc value versus compound concentration and the half maximal inhibitory concentration (IC50) value is derived from this curve.

[1] = molecular target: T1, Human recombinant PDE2A (hPDE2A) (Homo sapiens, UniProt O00408); assay: In vitro assay PDE2A (SPA, 3H-cGMP); format: biochemical
T1 construct: made in house; host or cells: Sf9 insect cells (baculovirus)
Description: Human recombinant PDE2A (hPDE2A) was expressed in Sf9 cells using a recombinant rPDE10A baculovirus construct. Cells were harvested after 48 h of infection and the hPDE2A protein was purified by metal chelate chromatography on Ni-sepharose 6FF. Tested compounds were dissolved and diluted in 100% DMSO to a concentration 100 fold of the final concentration in the assay. Compound dilutions (0.4 μl) were added in 384 well plates to 20 μl of incubation buffer (50 mM Tris pH 7.8, 8.3 mM MgCl2, 1.7 mM EGTA). 10 μl of hPDE2A enzyme in incubation buffer was added and the reaction was started by addition of 10 μl substrate to a final concentration of 10 μM cGMP and 0.01 μCi ^3H-cGMP. The reaction was incubated for 45 minutes at room temperature. […] After sedimentation of the beads during 30 minutes the radioactivity was measured in a Perkin Elmer Topcount scintillation counter and results were expressed as cpm. For blanc values the enzyme was omitted from the reaction and replaced by incubation buffer. Control values were obtained by addition of a final concentration of 1% DMSO instead of compound.

[2] = 10 μM cGMP substrate, read-out: hPDE2A pIC50 (converted)
[3] = hPDE2A pIC50, 10 μM cGMP substrate

hPDE10A2, sequence (Q9Y233 267-1055): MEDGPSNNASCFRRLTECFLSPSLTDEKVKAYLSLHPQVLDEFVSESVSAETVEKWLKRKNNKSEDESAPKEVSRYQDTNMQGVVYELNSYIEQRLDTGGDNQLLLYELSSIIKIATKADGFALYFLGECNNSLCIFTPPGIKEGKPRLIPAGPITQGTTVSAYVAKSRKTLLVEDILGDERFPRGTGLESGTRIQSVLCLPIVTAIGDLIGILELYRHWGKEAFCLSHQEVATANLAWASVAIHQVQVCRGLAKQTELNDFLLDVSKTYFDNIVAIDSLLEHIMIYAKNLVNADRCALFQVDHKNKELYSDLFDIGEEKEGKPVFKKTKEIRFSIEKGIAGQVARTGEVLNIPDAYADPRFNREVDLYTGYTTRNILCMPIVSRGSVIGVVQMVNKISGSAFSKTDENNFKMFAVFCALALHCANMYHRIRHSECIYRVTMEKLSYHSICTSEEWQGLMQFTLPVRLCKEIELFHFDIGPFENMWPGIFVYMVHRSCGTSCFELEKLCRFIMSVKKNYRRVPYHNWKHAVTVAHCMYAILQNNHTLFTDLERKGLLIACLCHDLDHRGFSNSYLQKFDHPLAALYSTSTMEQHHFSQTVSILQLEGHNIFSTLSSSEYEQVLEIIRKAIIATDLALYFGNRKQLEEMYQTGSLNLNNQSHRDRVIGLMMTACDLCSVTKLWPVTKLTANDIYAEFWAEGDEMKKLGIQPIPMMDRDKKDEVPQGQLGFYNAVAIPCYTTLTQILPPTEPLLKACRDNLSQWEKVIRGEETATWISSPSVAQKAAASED
T1 sequence (O00408 whole entry): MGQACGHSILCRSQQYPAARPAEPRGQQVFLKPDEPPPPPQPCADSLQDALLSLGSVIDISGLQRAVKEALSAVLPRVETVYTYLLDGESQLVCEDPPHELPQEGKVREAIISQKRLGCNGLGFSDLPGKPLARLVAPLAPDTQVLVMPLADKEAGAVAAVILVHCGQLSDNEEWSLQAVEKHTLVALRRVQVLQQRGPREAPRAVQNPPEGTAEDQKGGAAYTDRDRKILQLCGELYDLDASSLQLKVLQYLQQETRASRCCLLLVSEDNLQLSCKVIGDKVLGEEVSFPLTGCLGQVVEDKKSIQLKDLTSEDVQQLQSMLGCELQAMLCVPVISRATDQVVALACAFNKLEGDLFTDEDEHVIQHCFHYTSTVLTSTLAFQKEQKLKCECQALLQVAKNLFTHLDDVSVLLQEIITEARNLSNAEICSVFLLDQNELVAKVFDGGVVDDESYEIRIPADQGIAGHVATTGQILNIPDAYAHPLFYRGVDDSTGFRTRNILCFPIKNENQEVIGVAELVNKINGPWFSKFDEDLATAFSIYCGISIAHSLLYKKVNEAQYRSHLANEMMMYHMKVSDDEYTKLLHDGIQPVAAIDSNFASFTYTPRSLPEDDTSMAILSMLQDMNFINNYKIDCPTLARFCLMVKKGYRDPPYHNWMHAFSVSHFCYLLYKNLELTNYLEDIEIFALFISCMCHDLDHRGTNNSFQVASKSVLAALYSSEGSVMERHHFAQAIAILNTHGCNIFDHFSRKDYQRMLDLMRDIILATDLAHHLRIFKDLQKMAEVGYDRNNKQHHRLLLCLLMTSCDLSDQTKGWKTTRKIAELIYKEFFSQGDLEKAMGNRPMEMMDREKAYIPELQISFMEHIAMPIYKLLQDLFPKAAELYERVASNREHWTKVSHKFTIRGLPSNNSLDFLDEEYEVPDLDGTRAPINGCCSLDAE

Structure (SMILES) | hPDE3B pIC50 (hPDE3B) | hPDE3B Emax (hPDE3B) | IC50 (hPDE10A2) | Emax (hPDE10A2) | IC50 [1] | Emax ([1]; 10 μM cGMP substrate) | IC50 [1, 2] | IC50 [1, 3]
C[C@@H]1CCN([C@@H](C)c2ccc(C(F)(F)F)cc2)C[C@H]1c1cc(C(F)F)nc2ncnn12 (relative stereo) [Compound 6] | <5 | 37 | 6310 nM | 68% | 178 nM | 99% | – | –
C[C@@H]1CCN([C@H](C)c2ccc3ncsc3c2)C[C@H]1c1cc(C(F)F)nc2ncnn12 (single isomer, unassigned) [Compound 12] | ~5.07 | 54 | 2040 nM | 86% | 44.7 nM | 99% | – | –
C[C@@H]1CCN([C@H](C)c2ccc(C(F)(F)F)cc2)C[C@H]1c1cc(C(F)F)nc2ncnn12 (relative stereo) [Compound 7] | 5.08 | 57 | 7760 nM | 47% | 102 nM | 98% | – | –
C[C@@H]1CCN(Cc2ccc(OC(F)(F)F)cc2)C[C@H]1c1cc(C(F)F)nc2ncnn12 [Compound 23] | 5.14 | 49 | 6920 nM | 62% | – | 97% | 575 nM | –
C[C@@H]1CCN(Cc2cccc(C#N)n2)C[C@H]1c1cc(C(F)F)nc2ncnn12 [Compound 25] | <5 | 12 | > 10000 nM | 28% | – | 92% | – | 1020 nM
COc1ccc(CN2CCC[C@](C)(c3cc(C(F)F)nc4ncnn34)C2)c(OC)c1.Cl (stereo in doubt) [Compound 53] | <5 | 3 | > 10000 nM | 0% | – | 14% | – | 6920 nM
C[C@@H]1CCN(Cc2ccc(Cl)c(Cl)c2)C[C@H]1c1cc(C(F)F)nc2ncnn12 [Compound 14] | <5 | 39 | 2290 nM | 80% | 56.2 nM | 102% | – | –
C[C@@H]1CCN(Cc2ccc(C(F)(F)F)cc2)C[C@H]1c1cc(C(F)F)nc2ncnn12 [Compound 39] | – | – | 6170 nM | 65% | – | 99% | 170 nM | –
Cl.FC(F)c1cc([C@H]2CC[C@H]3CC[C@@H]2N3Cc2ccc(Cl)c(Cl)c2)n2ncnc2n1 [Compound 57] | <5 | 35 | 7940 nM | 58% | 105 nM | 100% | – | –
Cc1cc(CN2CC[C@@H](C)[C@@](F)(c3cc(C(F)F)nc4ncnn34)C2)cc(C)n1 (single isomer, unassigned) [Compound 49] | <5 | 17 | > 10000 nM | 12% | – | 86% | – | 2140 nM
Cl.FC(F)Oc1cccc(CN2[C@H]3CC[C@H](c4cc(C(F)F)nc5ncnn45)[C@@H]2CC3)c1 [Compound 56] | <5 | 26 | > 10000 nM | 43% | 525 nM | 97% | – | –
C[C@H]1CCN(CC2CCOCC2)C[C@@H]1c1cc(C(F)F)nc2ncnn12.Cl [Compound 27] | <5 | 3 | > 10000 nM | 11% | – | 20% | – | ~4900 nM
CC(C)c1ccc(CN2CC[C@@H](C)[C@H](c3cc(C(F)F)nc4ncnn34)C2)cc1 [Compound 18] | 5.1 | 60 | 7760 nM | 56% | 282 nM | 98% | – | –
COc1ccc(CN2CC[C@H](C)[C@@H](c3cc(C(F)F)nc4ncnn34)C2)c(OC)c1.Cl [Compound 46] | <5 | 17 | > 10000 nM | -6% | – | 9% | – | 7240 nM
